Assay [1] concerns the target T1, SH2 and PTB domains (Homo sapiens, UniProt P43405).
T1 construct: thioredoxin; made in house; host or cells: BL21(DE3)pLysS E. coli
Kind of assay: In-house protein microarrays (with or without 5 mM DTT), protein named per line. It counts as binding. A digest of the protocol: (§1)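 Recombinant domains (~40 µM) spotted in duplicate on aldehyde slides, quenched 1 h at room temperature in HEPES/KCl/Tween-20 buffer pH 7.8 with 5 mM DTT and 1% BSA, then probed with rhodamine-labeled peptide. Thioredoxin-subtracted mean fluorescence fitted for KD.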

The target in assay [2] is T2, SH2 and PTB domains (Homo sapiens, UniProt O43639).
T2 construct: thioredoxin; made in house; host or cells: BL21(DE3)pLysS E. coli
The description is as above. It is filed as binding. Conditions: protein NCK2; PM assay replicate # 39307; array fabrication # 39286. A digest of the protocol: as §1

The mark [3] stands for this setting: protein SYK-NC, PM assay replicate # 39307, array fabrication # 39286.
[4] abbreviates: protein SYK-NC, PM assay replicate # 39351, array fabrication # 39336.
Where [5] appears, read: protein SYK-NC, PM assay replicate # 39352, array fabrication # 39336.

Residues, ends and D or L forms follow the SMILES beside them.

The term Kd denotes the constant that tells how readily two partners part at equilibrium. A lower Kd goes with a tighter complex.

T2 sequence (O43639 whole entry, the tested form may be a part): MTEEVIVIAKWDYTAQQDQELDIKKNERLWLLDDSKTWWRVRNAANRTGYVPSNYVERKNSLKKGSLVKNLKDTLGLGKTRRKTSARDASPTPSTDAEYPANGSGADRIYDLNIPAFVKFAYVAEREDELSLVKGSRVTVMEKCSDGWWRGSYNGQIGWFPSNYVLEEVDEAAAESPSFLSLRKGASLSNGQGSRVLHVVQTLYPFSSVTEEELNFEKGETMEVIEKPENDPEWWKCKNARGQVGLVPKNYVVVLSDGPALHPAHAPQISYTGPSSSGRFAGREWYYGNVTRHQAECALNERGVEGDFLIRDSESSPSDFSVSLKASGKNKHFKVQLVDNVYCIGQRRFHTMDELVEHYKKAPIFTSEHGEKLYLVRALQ

As to `CCN(CC)c1ccc2c(-c3ccc(C(=O)N[C@@H](CC(N)=O)C(=O)NCC(=O)N4CCC[C@H]4C(=O)N4CCC[C@H]4C(=O)N[C@@H](CCCCN)C(=O)N[C@@H](C)C(=O)N[C@@H](CCC(=O)O)C(=O)N[C@@H](CC(=O)O)C(=O)N[C@@H](CCC(=O)O)C(=O)N[C@@H](Cc4ccc(OP(=O)(O)O)cc4)C(=O)N[C@H](C(=O)N[C@@H](CC(N)=O)C(=O)N[C@@H](CCC(=O)O)C(=O)N4CCC[C@H]4C(=O)N[C@@H](CC(C)C)C(=O)N[C@@H](Cc4ccc(O)cc4)C(=O)N[C@@H](CC(C)C)C(=O)N[C@@H](CC(=O)O)C(=O)O)C(C)C)cc3C(=O)[O-])c3ccc(=[N+](CC)CC)cc-3oc2c1` [ErbB4 1202 (18-mer)] (HELM PEPTIDE1{[CCN(CC)c1ccc2c(-c3ccc(C(=O)[*:2])cc3C(=O)[O-])c3ccc(=[N+](CC)CC)cc-3oc2c1].N.G.P.P.K.A.E.D.E.[O=C([C@H](Cc1ccc(OP(=O)(O)O)cc1)N[*:1])[*:2]].V.N.E.P.L.Y.L.D}$$$$V2.0), the “Kd” value came to 950 nM in assay [1] (setting [3]); 1420 nM in assay [1] (protein SYK-NC, PM assay replicate # 39337, array fabrication # 39329); 810 nM in assay [1] (setting [4]); 1150 nM in assay [1] (setting [5]); 10060 nM in assay [2].

Turning to `CC[C@H](C)[C@H](NC(=O)[C@H](CC(N)=O)NC(=O)[C@H](CC(N)=O)NC(=O)[C@H](CCCCN)NC(=O)[C@H](CC(C)C)NC(=O)[C@H](Cc1ccc(OP(=O)(O)O)cc1)NC(=O)[C@H](CCC(=O)O)NC(=O)[C@H](C)NC(=O)[C@H](CCCCN)NC(=O)CNC(=O)[C@H](CC(C)C)NC(=O)[C@@H](NC(=O)[C@H](CC(N)=O)NC(=O)[C@H](C)NC(=O)[C@@H](N)Cc1ccccc1)[C@@H](C)O)C(=O)N[C@@H](CC(C)C)C(=O)N[C@@H](CO)C(=O)N[C@@H](CC(=O)O)C(=O)O` [ErbB4 pY1221 (18-mer)] (HELM PEPTIDE1{F.A.N.T.L.G.K.A.E.[O=C([C@H](Cc1ccc(OP(=O)(O)O)cc1)N[*:1])[*:2]].L.K.N.N.I.L.S.D}$$$$V2.0), the “Kd” value is 9490 nM in assay [1] (protein SYK-N, PM assay replicate # 39307, array fabrication # 39286); 15600 nM in assay [1] (protein SYK-N, PM assay replicate # 39352, array fabrication # 39336); 290 nM in assay [1] (setting [3]); 810 nM in assay [1] (setting [4]); 1290 nM in assay [1] (setting [5]); 210 nM in assay [2].

Values taken from PMC3433420 (PLoS ONE, 2012).
